Measurements reported in patent publication US20120190669A1, “OXINDOLE COMPOUNDS” (CYLENE PHARMACEUTICALS, INC., priority 2008, published 2012).
Read-outs that look alike come from different tables or passages of the source.

What was measured:
K-562 = test: Alamar Blue cell proliferation assay, K-562; assay type: cell-based; conditions: Homo sapiens
Experimental: (§1) A representative cell-proliferation assay protocol using Alamar Blue dye (stored at 4° C., use 20 ul per well) is described hereafter.
(§2) 96-Well Plate Setup and Compound Treatment
(§3) a. Split and trypsinize cells.
(§4) b. Count cells using hemocytometer.
(§5) c. Plate 4,000-5,000 cells per well in 100 μl of medium and seed into a 96-well plate according to the following plate layout. Add cell culture medium only to wells B10 to B12. Wells B1 to B9 have cells but no compound added.
(§6) d. Add 100 μl of 2× drug dilution to each well in a concentration shown in the plate layout above. At the same time, add 100 μl of media into the control wells (wells 1310 to B12). Total volume is 200 μl/well.
(§7) e. Incubate four (4) days at 37° C., 5% CO2 in a humidified incubator.
(§8) f. Add 20 μl Alamar Blue reagent to each well.
(§9) g. Incubate for four (4) hours at 37° C., 5% CO2 in a humidified incubator.
(§10) h. Record fluorescence at an excitation wavelength of 544 nm and emission wavelength of 590 nm using a microplate reader.
(§11) In the assays, cells are cultured with a test compound for approximately four days, the dye is then added to the cells and fluorescence of […] dye is detected after approximately four hours. Different types of cells can be utilized in the assays (e.g., HCT-116 human colorectal carcinoma cells, PC-3 human prostatic cancer cells and MiaPaca human pancreatic carcinoma cells).

MV-4-11 = test: Alamar Blue cell proliferation assay, MV-4-11; assay type: cell-based; conditions: Homo sapiens, MV4-11, Table 4, read-out: AB: MV-4-11
Experimental: as §1, §2, §3, §4, §5, §6, §7, §8, §9, §10, §11

recombinant PIM-1 = recombinant PIM-1 (Homo sapiens, UniProt P11309); test: PIM-1 kinase assay (radiometric, 15 uM ATP, DMSO 4%); assay type: biochemical; conditions: for inhibition at 2 µM: % inhibition at the high dose (2 micromolar) in a single screening assay, 15 μM ATP
Experimental: The following procedure was used to assay the PIM-1 kinase activity of compounds of the invention. Other methods for assaying PIM-1 and other PIM kinases, as well as methods to assay for activity against the various kinases in FIG. 1, are known in the art.
(specific activity approx. 500 cpm/pmol), DMSO 4% and test inhibitor compound at the required concentration. The reaction was initiated by the addition of the Magnesium ATP mixture. After 40 min incubation at 23° C., the reactions were quenched by the addition of 100 ul 0.75% Phosphoric acid, and the labeled peptide collected by filtration through a phosphocellulose filter plate. The plate was washed 4 times with 0.075% phosphoric acid (100 ul per well) and then, after the addition of scintillation fluid (20 ul per well), the counts were measured by a scintillation counter.

[1] = tested on: PC-3 human prostatic cancer cells; test: Alamar Blue cell proliferation assay, PC3; assay type: cell-based
Experimental: as §1, §2, §3, §4, §5, §6, §7, §8, §9, §10, §11

[2] = tested on: MiaPaca human pancreatic carcinoma cells; test: Alamar Blue cell proliferation assay, MiaPaCa; assay type: cell-based; conditions: MIA PaCa-2, Table 2, read-out: AB: MiaPaCa
Experimental: as §1, §2, §3, §4, §5, §6, §7, §8, §9, §10, §11

[3] = Table 3, DMSO 4%, read-out: PIM1: IC50 (DMSO 4%)
[4] = Table 1, given for compounds with IC50 at or below 2 micromolar, 15 uM ATP, read-out: PIM-1 IC50

Sequence of recombinant PIM-1 (P11309 whole entry): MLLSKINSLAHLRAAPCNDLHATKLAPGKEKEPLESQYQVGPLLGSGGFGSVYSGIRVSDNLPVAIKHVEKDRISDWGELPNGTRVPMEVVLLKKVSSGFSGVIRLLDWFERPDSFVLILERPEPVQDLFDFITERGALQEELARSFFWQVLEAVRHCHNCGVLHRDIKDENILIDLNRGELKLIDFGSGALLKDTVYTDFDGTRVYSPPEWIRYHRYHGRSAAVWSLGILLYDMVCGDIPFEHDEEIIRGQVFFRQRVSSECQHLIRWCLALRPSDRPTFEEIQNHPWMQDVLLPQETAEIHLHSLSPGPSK

| SMILES | inhibition at 2 µM (recombinant PIM-1; Table 1) [%] | IC50 (recombinant PIM-1; [4]) [µM] | other results |
| --- | --- | --- | --- |
| Nc1cccc(-c2ccc(/C=C3/C(=O)Nc4ccccc43)o2)c1 [drawing 234] | – | – | IC50 (K-562; K562, Table 4, read-out: AB: K-562): 5.13 µM; IC50 (MV-4-11): 2.44 µM; IC50 (recombinant PIM-1; Table 4, 15 um ATP, read-out: PIM1: IC50 (15 um ATP)): 0.992 µM |
| CN1CCCN(C(=O)c2cccc(-c3ccc(/C=C4/C(=O)Nc5ccc(F)cc54)o3)c2)CC1 | – | – | IC50 ([1]; Table 3, read-out: AB: PC3): > 10 µM; IC50 (recombinant PIM-1; [3]): < 1 µM |
| O=C1Nc2ccccc2/C1=C\c1ccc(-c2cc(F)cc(C(=O)NCCN3CCCC3)c2)o1 [Compound 79] | 43.3 | < 2 | – |
| CN1CCCCC1CNC(=O)c1cccc(-c2ccc(/C=C3/C(=O)Nc4cc(F)ccc43)o2)c1 (centres unmarked) [Compound 40] | 33.9 | – | – |
| CN1CCCC(NC(=O)c2ccc(-c3ccc(/C=C4/C(=O)Nc5ccccc54)o3)cc2)C1 (centres unmarked) [Compound 35] | – | < 1 | – |
| CCN(CC)CCNC(=O)c1ccc(Cl)c(-c2ccc(/C=C3/C(=O)Nc4ccc(F)cc43)o2)c1 [Compound 97] | – | < 1 | – |
| O=C1Nc2ccccc2/C1=C\c1ccc(-c2ccc(C(=O)O)nc2)o1 [Compound 127] | – | < 1 | – |
| CCN1CCCC1CNC(=O)c1cncc(-c2ccc(/C=C3/C(=O)Nc4ccc(Cl)cc43)o2)c1 (centres unmarked) [Compound 151] | – | < 1 | – |
| CCN(CC)CCNC(=O)c1ccccc1-c1ccc(/C=C2/C(=O)Nc3ccc(F)cc32)o1 [Compound 68] | 11.2 | – | – |
| CN1CCCCC1CNC(=O)c1cccc(-c2ccc(/C=C3/C(=O)Nc4ccc(Cl)cc43)o2)c1 (centres unmarked) [Compound 44] | -9.22 | – | – |
| CN1CCC(N(C)C(=O)c2cccc(-c3coc(/C=C4/C(=O)Nc5ccc(F)cc54)c3)c2)C1 (centres unmarked) [Compound 91] | 2.87 | – | – |
| CN1CCC(N(C)C(=O)c2ccc(Cl)c(-c3ccc(/C=C4/C(=O)Nc5ccc(F)cc54)o3)c2)C1 (centres unmarked) [Compound 99] | – | < 1 | – |
| O=C1Nc2ccccc2/C1=C\c1ccc(-c2ccc(Cl)c(C(=O)NCC3CCCN3)c2)o1 (centres unmarked) [Compound 29] | -33.4 | – | – |
| O=C1Nc2ccc(Cl)cc2/C1=C\c1ccc(-c2cncc(C(=O)O)c2)o1 [Compound 146] | – | < 2 | – |
| CN1CCN(C(=O)c2cccc(-c3ccc(/C=C4/C(=O)Nc5ccc(Cl)cc54)o3)c2)CC1 [Compound 114] | 23 | – | – |
| O=C1Nc2ccccc2/C1=C\c1ccc(-c2cc(C(=O)NCCN3CCCC3)ccc2Cl)o1 [Compound 14] | – | < 2 | – |
| CN1CCCN(C(=O)c2ccc(Cl)c(-c3ccc(/C=C4/C(=O)Nc5ccc(F)cc54)o3)c2)CC1 | – | – | IC50 (recombinant PIM-1; [3]): < 1 µM |
| CCN(CC)CCC(=O)Nc1cccc(-c2ccc(/C=C3/C(=O)Nc4ccccc43)o2)c1 [Compound 185] | – | < 1 | – |
| CN1CCCC(NC(=O)c2cccc(-c3coc(/C=C4/C(=O)Nc5ccc(F)cc54)c3)c2)C1 (centres unmarked) [Compound 89] | 6.1 | – | – |

| SMILES | inhibition at 2 µM (recombinant PIM-1; Table 1) [%] | IC50 (recombinant PIM-1; [4]) [µM] | other results |
| --- | --- | --- | --- |
| NS(=O)(=O)c1ccc(-c2ccc(/C=C3/C(=O)Nc4ccc(Cl)cc43)o2)cc1 | – | – | IC50 ([1]; Table 3, read-out: AB: PC3): > 10 µM; IC50 (recombinant PIM-1; [3]): < 1 µM |
| O=C1Nc2ccc(Cl)cc2/C1=C\c1ccc(-c2cccc(C(=O)NC3=NCCS3)c2)o1 [Compound 174] | – | < 1 | – |
| CCN(CC)CCNC(=O)c1ccc(-c2ccc(/C=C3/C(=O)Nc4ccc(F)cc43)o2)cc1 [Compound 80] | 94.2 | < 1 | – |
| CCN(CC)CCNC(=O)c1ccc(-c2ccc(/C=C3/C(=O)Nc4ccccc43)o2)cn1 [Compound 134] | 32.4 | – | – |
| CCN1CCCC1CNC(=O)c1ccc(-c2ccc(/C=C3/C(=O)Nc4ccccc43)o2)cc1 (centres unmarked) [Compound 32] | – | < 1 | – |
| CN1CCCCC1CNC(=O)c1ccc(-c2ccc(/C=C3/C(=O)Nc4ccccc43)o2)cc1 (centres unmarked) [Compound 37] | – | < 2 | – |
| CCOC(=O)c1cncc(-c2ccc(/C=C3/C(=O)Nc4ccc(Cl)cc43)o2)c1 [Compound 145] | 34.5 | – | – |
| CCN(CC)CC(=O)Nc1cccc(-c2ccc(/C=C3/C(=O)Nc4ccccc43)o2)c1 [Compound 187] | – | < 1 | – |
| CN1CCCCC1CNC(=O)c1cccc(-c2ccc(/C=C3/C(=O)Nc4cccc(Br)c43)o2)c1 (centres unmarked) [Compound 45] | -21.9 | – | – |
| O=C1Nc2ccc(Cl)cc2/C1=C\c1ccc(-c2cccc(C(=O)NCC(O)c3ccccc3)c2)o1 (centres unmarked) [Compound 180] | – | < 1 | – |
| CN1CCCC(NC(=O)c2cncc(-c3ccc(/C=C4/C(=O)Nc5ccc(Cl)cc54)o3)c2)C1 (centres unmarked) [Compound 149] | – | < 1 | – |
| O=C1Nc2ccccc2/C1=C\c1ccc(-c2ccc(Cl)c(C(=O)NCCN3CCCC3)c2)o1 [Compound 11] | 5.6 | – | – |
| Cc1cnc(CNC(=O)c2cccc(-c3ccc(/C=C4/C(=O)Nc5ccc(Cl)cc54)o3)c2)cn1 [Compound 107] | 21 | – | – |
| CN1C(=O)/C(=C/c2ccc(-c3cccc(C(=O)O)c3)o2)c2ccccc21 [Compound 2] | 31.6 | – | – |
| O=C1Nc2ccc(C(F)(F)F)cc2/C1=C\c1ccc(-c2cccc(C(=O)NCCN3CCCC3)c2)o1 [Compound 47] | 22.9 | – | – |
| O=C1Nc2ccc(Cl)cc2/C1=C\c1ccc(-c2cccc(C(=O)NCCc3ccccn3)c2)o1 [Compound 172] | 29.3 | – | – |
| COc1cc(CNC(=O)c2cccc(-c3ccc(/C=C4/C(=O)Nc5ccc(Cl)cc54)o3)c2)ccn1 [Compound 142] | 32.7 | – | – |
| CCN1CCCC1CNC(=O)c1cncc(-c2ccc(/C=C3/C(=O)Nc4ccc(Cl)cc43)o2)c1 (centres unmarked) [Compound 150] | – | < 1 | – |
| NCc1cccc(-c2ccc(/C=C3/C(=O)Nc4ccccc43)o2)c1 [Compound 165] | 19.4 | – | – |

| SMILES | inhibition at 2 µM (recombinant PIM-1; Table 1) [%] | IC50 (recombinant PIM-1; [4]) [µM] | other results |
| --- | --- | --- | --- |
| CN1CCCCC1CNC(=O)c1cccc(-c2coc(/C=C3/C(=O)Nc4ccc(F)cc43)c2)c1 (centres unmarked) [Compound 93] | 9.42 | – | – |
| CC1CCN(CCCNC(=O)c2cccc(-c3ccc(/C=C4/C(=O)Nc5ccc(Cl)cc54)o3)c2)CC1 [Compound 121] | 25.2 | – | – |
| CN1CCCC(NC(=O)c2ccc(-c3ccc(/C=C4/C(=O)Nc5ccccc54)o3)cn2)C1 (centres unmarked) [Compound 129] | 1.44 | – | – |
| CCN(CC)CCNC(=O)c1cccc(-c2ccc(/C=C3/C(=O)Nc4ccc(Cl)cc43)o2)c1 [Compound 120] | – | < 2 | – |
| CN(CCc1ccccn1)C(=O)c1cccc(-c2ccc(/C=C3/C(=O)Nc4ccc(Cl)cc43)o2)c1 [Compound 171] | -0.11 | – | – |
| O=C1Nc2ccc(Cl)cc2/C1=C\c1ccc(-c2cccc(C(=O)NCCN3CCCC3)c2)o1 [Compound 43] | 32.7 | – | – |
| Cn1cncc1CNC(=O)c1cccc(-c2ccc(/C=C3/C(=O)Nc4ccc(Cl)cc43)o2)c1 [Compound 110] | – | < 1 | – |
| CCN(CC)CCNC(=O)c1cc(-c2ccc(/C=C3/C(=O)Nc4ccc(F)cc43)o2)ccc1Cl [Compound 74] | 15.6 | – | – |
| O=C1Nc2ccccc2/C1=C\c1ccc(-c2ccc(C(=O)O)c(O)c2)o1 [Compound 170] | 43 | – | – |
| Cc1cnc(CNC(=O)c2ccc(-c3ccc(/C=C4/C(=O)Nc5ccc(F)cc54)o3)cc2)cn1 [Compound 82] | 26.6 | – | – |
| O=C1Nc2ccc(Cl)cc2/C1=C\c1ccc(-c2cccc(C(=O)NCc3ccnc(N4CCCC4)c3)c2)o1 [Compound 141] | 26.3 | – | – |
| CN1CCCN(C(=O)c2cccc(-c3ccc(CC4C(=O)Nc5ccc(Cl)cc54)o3)c2)CC1 (centres unmarked) [drawing 213] | – | – | IC50 ([1]; Table 2, read-out: AB: PC3): 15.4 µM; IC50 (K-562; K562, Table 2, read-out: AB: K-562): 0.24 µM; IC50 [2]: 0.559 µM; IC50 (recombinant PIM-1; Table 2, read-out: PIM1: IC50): < 0.1 µM |
| CN1CCC(N(C)C(=O)c2cccc(-c3ccc(/C=C4/C(=O)Nc5ccc(Cl)cc54)o3)c2)C1 (centres unmarked) [Compound 109] | – | < 2 | – |
| CCN1CCCC1CNC(=O)c1cccc(-c2coc(/C=C3/C(=O)Nc4ccc(F)cc43)c2)c1 (centres unmarked) [Compound 90] | 17.1 | – | – |
| CCN1CCCC1CNC(=O)c1cc(-c2ccc(/C=C3/C(=O)Nc4ccc(F)cc43)o2)ccc1Cl (centres unmarked) [Compound 71] | 5.32 | – | – |
| CN(CCN1CCCC1)C(=O)c1ccccc1-c1ccc(/C=C2/C(=O)Nc3ccccc32)o1 [Compound 55] | 2.91 | – | – |
| CN1CCCCC1CNC(=O)c1cccc(-c2ccc(/C=C3/C(=O)Nc4ccc(C#N)cc43)o2)c1 (centres unmarked) [Compound 46] | -0.36 | – | – |
| CN1CCCC(NC(=O)c2ccccc2-c2ccc(/C=C3/C(=O)Nc4ccc(F)cc43)o2)C1 (centres unmarked) [Compound 63] | 10.3 | – | – |
